Holding throughout (type): functional
Test [1] deals with Cyclin-dependent kinase 7 (Homo sapiens, UniProt P50613).
Test [2] deals with T1, Serine/threonine-protein kinase D3 (Homo sapiens, UniProt O94806).
T1 sequence (O94806 whole entry): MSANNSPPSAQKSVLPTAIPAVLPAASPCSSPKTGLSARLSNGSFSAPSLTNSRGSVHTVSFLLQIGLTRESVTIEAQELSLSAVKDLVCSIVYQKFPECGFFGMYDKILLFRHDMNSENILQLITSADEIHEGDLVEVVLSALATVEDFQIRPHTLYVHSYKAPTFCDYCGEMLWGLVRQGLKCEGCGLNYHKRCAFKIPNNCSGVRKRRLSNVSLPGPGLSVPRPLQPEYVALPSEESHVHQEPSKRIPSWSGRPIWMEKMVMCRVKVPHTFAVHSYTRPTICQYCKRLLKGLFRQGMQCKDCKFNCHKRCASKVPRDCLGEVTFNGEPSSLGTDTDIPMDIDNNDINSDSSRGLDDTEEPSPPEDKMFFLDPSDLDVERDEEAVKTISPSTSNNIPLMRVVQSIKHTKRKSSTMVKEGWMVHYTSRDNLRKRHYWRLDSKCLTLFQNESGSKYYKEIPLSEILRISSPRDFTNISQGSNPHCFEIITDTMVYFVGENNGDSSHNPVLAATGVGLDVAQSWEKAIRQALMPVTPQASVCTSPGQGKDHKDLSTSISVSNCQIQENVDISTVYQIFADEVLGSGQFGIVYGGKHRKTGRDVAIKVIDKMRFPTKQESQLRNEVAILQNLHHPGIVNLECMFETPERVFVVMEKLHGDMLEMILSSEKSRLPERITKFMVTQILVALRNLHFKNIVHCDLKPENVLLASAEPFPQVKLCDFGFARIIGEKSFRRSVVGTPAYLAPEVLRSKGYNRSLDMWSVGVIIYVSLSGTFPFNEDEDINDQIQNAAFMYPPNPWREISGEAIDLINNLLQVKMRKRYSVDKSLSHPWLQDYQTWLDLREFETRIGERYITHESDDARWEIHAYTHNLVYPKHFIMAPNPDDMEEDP

Test [3] addresses Leucine-rich repeat serine/threonine-protein kinase 2 (Homo sapiens, UniProt Q5S007).
The target in test [4] is Platelet-derived growth factor receptor beta (Homo sapiens, UniProt P09619).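 Further: value comes from a kinome panel, with PDGFRB tested as one panel member.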
The target of test [5] is T2, Inhibitor of nuclear factor kappa-B kinase subunit epsilon (Homo sapiens, UniProt Q14164).
T2 sequence (Q14164 whole entry): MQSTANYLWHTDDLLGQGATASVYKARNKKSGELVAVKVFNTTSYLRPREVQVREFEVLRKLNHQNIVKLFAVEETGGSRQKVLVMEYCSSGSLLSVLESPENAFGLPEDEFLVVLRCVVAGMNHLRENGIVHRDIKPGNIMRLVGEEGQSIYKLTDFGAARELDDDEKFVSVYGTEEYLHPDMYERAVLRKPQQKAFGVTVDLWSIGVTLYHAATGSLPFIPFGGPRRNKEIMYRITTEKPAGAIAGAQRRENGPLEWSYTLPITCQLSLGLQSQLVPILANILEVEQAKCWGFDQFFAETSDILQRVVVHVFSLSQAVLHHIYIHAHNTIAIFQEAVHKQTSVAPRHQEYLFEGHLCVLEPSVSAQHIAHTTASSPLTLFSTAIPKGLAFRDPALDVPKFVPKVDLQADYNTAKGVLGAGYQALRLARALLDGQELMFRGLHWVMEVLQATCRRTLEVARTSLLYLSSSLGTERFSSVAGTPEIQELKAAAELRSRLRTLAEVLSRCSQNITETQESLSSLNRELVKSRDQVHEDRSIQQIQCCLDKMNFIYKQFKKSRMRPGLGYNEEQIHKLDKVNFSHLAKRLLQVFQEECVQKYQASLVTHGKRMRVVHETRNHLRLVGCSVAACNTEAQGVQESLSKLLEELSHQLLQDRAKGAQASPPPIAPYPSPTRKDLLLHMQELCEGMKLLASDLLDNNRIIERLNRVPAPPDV
As to the kind of experiment: Navigating the Kinome. Panel member name: IKBKE.

The target of test [6] is Platelet-derived growth factor receptor alpha (Homo sapiens, UniProt P16234). Kind of test: Navigating the Kinome. Panel member name: PDGFRA.
Test [7] concerns the target T3, Serine/threonine-protein kinase Nek2 (Homo sapiens, UniProt P51955).
T3 sequence (P51955 whole entry): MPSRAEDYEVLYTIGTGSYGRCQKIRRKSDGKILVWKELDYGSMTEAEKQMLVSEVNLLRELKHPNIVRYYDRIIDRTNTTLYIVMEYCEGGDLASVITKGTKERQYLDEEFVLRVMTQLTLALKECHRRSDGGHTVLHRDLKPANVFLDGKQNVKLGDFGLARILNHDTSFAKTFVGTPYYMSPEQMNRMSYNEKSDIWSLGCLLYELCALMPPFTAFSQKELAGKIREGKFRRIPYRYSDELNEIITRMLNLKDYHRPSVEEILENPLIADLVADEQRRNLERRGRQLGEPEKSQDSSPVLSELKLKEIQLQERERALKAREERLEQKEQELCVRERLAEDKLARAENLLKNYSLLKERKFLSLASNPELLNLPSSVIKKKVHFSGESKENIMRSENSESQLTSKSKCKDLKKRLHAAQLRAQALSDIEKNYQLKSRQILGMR

Test [8] has as its target T4, Serine/threonine-protein kinase TBK1 (Homo sapiens, UniProt Q9UHD2).
T4 sequence (Q9UHD2 whole entry): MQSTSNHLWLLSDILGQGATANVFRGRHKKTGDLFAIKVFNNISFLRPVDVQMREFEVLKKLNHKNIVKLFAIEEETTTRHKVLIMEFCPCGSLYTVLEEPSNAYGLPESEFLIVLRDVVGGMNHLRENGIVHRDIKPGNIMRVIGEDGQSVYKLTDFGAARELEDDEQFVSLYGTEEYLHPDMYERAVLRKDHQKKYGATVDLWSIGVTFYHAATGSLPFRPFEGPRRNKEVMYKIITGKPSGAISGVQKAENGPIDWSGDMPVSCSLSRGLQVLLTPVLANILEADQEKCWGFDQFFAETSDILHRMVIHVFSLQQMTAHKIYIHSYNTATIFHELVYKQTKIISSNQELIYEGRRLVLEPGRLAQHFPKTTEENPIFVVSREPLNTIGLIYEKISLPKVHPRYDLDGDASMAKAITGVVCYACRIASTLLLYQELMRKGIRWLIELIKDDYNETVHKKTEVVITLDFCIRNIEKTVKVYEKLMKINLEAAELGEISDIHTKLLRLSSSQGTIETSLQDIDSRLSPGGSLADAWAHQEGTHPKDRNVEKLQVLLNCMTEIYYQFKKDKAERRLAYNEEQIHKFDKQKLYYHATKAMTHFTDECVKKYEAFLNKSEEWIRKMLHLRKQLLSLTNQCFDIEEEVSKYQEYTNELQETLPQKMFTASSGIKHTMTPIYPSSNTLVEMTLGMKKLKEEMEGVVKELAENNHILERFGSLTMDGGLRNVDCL
As to the kind of experiment: Navigating the Kinome. Panel member name: TBK1.

A word on the Ki: it is the dissociation constant of the complex between target and ligand, obtained from inhibition or displacement.

Calls of active or inactive are those of the source. Where only a bound is given, the exact number is not on record here.

Sequence of Platelet-derived growth factor receptor alpha (P16234 whole entry): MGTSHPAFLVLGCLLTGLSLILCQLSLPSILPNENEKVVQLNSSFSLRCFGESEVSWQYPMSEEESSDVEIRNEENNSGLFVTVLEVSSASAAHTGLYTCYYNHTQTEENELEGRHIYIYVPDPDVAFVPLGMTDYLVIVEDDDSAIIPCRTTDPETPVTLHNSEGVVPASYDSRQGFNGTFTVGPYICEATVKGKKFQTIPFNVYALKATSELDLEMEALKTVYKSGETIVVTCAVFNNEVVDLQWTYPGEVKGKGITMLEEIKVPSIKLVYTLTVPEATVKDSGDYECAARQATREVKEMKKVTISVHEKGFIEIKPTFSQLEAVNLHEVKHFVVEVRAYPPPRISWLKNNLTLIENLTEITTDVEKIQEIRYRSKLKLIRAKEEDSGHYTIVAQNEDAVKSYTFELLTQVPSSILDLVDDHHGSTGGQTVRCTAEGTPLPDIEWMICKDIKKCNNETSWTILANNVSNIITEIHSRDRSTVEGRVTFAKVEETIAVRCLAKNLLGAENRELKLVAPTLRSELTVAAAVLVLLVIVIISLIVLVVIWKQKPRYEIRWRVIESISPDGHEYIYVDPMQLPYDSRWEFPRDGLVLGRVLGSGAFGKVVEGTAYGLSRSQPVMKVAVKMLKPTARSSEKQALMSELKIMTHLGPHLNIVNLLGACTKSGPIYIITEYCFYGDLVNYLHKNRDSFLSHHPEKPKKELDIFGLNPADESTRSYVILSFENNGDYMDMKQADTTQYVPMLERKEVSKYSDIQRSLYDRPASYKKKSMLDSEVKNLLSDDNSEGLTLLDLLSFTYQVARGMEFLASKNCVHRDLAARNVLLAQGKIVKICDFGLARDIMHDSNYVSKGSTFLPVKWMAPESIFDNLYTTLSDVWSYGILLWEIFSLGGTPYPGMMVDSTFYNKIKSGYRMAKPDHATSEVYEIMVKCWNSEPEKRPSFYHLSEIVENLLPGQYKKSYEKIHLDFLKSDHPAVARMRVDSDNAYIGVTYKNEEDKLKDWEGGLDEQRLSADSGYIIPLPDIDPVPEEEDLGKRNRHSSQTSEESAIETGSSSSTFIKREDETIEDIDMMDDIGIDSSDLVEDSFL
Sequence of Cyclin-dependent kinase 7 (P50613 whole entry): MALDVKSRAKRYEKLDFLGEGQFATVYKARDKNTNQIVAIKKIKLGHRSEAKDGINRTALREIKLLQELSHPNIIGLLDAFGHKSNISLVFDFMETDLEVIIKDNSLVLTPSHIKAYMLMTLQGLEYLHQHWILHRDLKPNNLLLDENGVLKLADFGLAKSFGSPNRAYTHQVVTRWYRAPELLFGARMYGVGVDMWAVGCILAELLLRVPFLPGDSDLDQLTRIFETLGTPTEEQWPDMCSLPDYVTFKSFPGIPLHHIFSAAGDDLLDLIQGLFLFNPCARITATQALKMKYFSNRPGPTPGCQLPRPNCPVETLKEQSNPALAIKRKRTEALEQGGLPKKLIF
Sequence of Leucine-rich repeat serine/threonine-protein kinase 2 (Q5S007 whole entry): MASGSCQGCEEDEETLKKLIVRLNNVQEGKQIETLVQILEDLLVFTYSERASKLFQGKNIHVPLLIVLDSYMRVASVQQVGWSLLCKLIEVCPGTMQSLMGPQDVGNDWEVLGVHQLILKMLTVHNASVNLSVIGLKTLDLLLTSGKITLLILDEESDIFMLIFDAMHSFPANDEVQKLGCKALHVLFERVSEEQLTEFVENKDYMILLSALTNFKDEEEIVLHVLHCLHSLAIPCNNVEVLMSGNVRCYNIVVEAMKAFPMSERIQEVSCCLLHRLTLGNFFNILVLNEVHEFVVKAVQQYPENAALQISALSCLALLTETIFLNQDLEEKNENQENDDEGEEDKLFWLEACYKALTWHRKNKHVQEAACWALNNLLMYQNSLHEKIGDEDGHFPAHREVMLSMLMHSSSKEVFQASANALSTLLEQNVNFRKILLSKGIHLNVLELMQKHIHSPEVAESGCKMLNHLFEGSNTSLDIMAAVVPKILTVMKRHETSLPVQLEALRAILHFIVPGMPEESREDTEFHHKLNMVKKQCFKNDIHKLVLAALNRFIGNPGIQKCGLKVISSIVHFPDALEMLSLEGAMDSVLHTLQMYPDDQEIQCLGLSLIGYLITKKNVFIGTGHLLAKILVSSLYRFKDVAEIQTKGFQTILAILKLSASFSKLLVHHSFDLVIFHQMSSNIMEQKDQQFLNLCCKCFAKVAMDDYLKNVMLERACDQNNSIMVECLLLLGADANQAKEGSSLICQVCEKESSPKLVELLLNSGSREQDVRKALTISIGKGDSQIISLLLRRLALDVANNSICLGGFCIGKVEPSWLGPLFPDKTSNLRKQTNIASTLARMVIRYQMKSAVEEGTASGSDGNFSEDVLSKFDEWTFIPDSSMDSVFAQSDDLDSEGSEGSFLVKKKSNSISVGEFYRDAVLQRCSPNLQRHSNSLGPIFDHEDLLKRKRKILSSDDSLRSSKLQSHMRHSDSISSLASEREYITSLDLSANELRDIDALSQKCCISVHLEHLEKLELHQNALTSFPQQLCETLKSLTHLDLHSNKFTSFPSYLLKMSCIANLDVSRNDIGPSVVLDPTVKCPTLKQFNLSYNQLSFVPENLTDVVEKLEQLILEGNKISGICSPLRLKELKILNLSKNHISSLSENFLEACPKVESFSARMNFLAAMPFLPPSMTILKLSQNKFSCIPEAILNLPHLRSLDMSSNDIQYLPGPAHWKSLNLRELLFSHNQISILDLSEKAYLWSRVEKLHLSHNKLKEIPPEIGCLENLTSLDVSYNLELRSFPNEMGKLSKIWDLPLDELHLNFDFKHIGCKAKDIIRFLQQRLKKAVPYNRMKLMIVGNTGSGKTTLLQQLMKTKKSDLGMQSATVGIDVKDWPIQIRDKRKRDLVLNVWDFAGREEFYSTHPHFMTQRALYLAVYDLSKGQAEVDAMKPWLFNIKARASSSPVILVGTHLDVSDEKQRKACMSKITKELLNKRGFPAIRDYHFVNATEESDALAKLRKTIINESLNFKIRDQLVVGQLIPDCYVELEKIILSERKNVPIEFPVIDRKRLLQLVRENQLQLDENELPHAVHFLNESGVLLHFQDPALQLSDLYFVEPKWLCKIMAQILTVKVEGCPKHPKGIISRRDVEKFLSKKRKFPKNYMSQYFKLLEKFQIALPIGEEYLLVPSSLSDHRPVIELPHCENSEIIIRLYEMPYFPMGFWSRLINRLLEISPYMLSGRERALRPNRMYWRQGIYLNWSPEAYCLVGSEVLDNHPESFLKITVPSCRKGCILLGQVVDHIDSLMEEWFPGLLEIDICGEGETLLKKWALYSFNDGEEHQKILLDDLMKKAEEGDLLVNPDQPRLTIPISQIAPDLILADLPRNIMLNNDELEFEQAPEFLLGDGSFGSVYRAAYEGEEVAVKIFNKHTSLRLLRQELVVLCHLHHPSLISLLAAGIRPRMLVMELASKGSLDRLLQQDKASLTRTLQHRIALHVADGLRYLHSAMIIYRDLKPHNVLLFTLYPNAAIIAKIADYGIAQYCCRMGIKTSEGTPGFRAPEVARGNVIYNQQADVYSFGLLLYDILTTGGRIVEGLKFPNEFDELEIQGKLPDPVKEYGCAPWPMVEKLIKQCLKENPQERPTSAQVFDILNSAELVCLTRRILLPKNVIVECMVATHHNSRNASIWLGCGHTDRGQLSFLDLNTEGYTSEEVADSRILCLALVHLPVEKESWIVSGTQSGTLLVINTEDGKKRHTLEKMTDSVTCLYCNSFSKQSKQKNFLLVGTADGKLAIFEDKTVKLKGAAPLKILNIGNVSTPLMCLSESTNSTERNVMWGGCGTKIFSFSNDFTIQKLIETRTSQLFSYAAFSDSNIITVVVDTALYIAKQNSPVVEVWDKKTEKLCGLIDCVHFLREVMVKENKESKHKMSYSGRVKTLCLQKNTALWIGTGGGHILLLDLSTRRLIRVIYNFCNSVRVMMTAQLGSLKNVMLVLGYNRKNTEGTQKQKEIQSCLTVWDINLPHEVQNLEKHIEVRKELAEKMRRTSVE
Sequence of Platelet-derived growth factor receptor beta (P09619 whole entry): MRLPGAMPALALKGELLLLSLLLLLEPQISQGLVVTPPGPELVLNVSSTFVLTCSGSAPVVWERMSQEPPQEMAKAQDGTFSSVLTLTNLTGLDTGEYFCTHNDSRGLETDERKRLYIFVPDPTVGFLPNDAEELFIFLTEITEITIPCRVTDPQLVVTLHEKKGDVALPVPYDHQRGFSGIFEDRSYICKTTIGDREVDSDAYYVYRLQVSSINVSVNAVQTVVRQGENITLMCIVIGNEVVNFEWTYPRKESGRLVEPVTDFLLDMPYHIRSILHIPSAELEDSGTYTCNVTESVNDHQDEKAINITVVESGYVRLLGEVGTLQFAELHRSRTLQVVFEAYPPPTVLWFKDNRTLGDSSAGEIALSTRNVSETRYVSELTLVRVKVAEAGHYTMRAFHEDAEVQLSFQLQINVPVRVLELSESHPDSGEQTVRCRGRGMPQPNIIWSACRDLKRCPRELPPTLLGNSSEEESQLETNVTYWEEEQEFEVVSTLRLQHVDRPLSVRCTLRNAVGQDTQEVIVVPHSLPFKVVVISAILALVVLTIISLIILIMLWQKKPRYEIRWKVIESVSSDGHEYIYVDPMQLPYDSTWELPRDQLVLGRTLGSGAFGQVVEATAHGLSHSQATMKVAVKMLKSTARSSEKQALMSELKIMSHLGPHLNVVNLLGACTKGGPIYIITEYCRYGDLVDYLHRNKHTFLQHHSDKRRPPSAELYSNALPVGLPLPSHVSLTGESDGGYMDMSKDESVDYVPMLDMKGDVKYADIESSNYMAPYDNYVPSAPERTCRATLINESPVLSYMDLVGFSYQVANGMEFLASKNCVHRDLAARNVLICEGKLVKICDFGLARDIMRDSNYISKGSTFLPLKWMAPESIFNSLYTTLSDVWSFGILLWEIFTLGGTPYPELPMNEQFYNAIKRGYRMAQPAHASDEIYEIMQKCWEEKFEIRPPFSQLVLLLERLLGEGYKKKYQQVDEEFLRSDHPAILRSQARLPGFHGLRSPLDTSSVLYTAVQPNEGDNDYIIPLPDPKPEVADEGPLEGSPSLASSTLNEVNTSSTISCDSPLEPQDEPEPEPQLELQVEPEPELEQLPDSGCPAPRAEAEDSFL

Consider `Oc1ccc(-c2nc(-c3ccncc3)c(-c3ccc(F)cc3)[nH]2)cc1` [SB-202190], for which the Ki in test [1] was > 3.98 µM (inactive); in test [2], 2.51 µM (active); in test [3], > 2.51 µM (inactive); in test [4] it was > 2 µM (inactive); in test [5], > 3.16 µM (inactive); in test [6], > 3.16 µM (inactive). In addition, the Ki in test [7] and in test [8] was > 3.16 µM (inactive) each time.

Take `CCCCC(=O)Nc1cc(-c2c[nH]c3ncccc23)cc(Cl)n1`: the Ki in test [1] is > 3.98 µM (inactive); in test [2], > 3.98 µM (inactive); in test [3] it was > 2.51 µM (inactive); in test [5], > 3.16 µM (inactive); in test [6], > 2.51 µM (inactive); in test [8], > 3.16 µM (inactive).

In the case of `COc1cccc(C(C)NC(=O)c2sc(-c3ccncc3)nc2C)c1` (configuration not stated), the Ki in test [1] was > 3.98 µM (inactive); in test [2] it was > 3.98 µM (inactive); in test [3], > 2.51 µM (inactive); in test [4], > 2 µM (inactive); in test [5], > 3.16 µM (inactive); in test [6] it was > 2.51 µM (inactive). Further, the Ki in test [7] and in test [8] was > 3.16 µM (inactive) throughout.

The record behind these values is ChEMBL document CHEMBL1201862, “PubChem BioAssay data set” (2004).
